“And” between values parts separate entries of the source, which are not always exact repeats. Equal entries are not always repeated. Toxic doses and inconclusive results are not listed. No stated cut-off is given here; in the data, active means T/C of 150% or more; inactive means T/C below 125%.
Test system: L1210 leukemia ip in BDF1 mice, survival T/C
Assay: NCI In Vivo Anticancer Drug Screen. Data for tumor model L1210 Leukemia (intraperitoneal) in B6D2F1 (BDF1) mice
Conditions: endpoint: mean survival time, higher = longer survival
Method in brief: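 Value reflects the ratio of survival in compound-treated mice to survival in vehicle-treated controls, with both groups carrying the same transplanted tumor.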

[1] = dose: 100.0 mg/kg/injection, schedule: Q01DX009 (ip), vehicle: saline with Tween-80
[2] = dose: 100.0 mg/kg/injection, schedule: Q04DX003 (ip), vehicle: saline with Tween-80
[3] = dose: 200.0 mg/kg/injection, schedule: Q04DX003 (ip), vehicle: saline with Tween-80
[4] = dose: 400.0 mg/kg/injection, schedule: Q04DX003 (ip), vehicle: saline with Tween-80
[5] = dose: 100.0 mg/kg/injection, schedule: Q01DX009 (ip), vehicle: Klucel (hydroxypropylcellulose) (HPC)
[6] = dose: 100.0 mg/kg/injection, schedule: Q04DX002 (ip), vehicle: Klucel (hydroxypropylcellulose) (HPC)
[7] = dose: 200.0 mg/kg/injection, schedule: Q04DX002 (ip), vehicle: Klucel (hydroxypropylcellulose) (HPC)
[8] = dose: 400.0 mg/kg/injection, schedule: Q04DX002 (ip), vehicle: Klucel (hydroxypropylcellulose) (HPC)
[9] = dose: 5.0 mg/kg/injection, schedule: Q01DX001 (ip), vehicle: saline
[10] = dose: 10.0 mg/kg/injection, schedule: Q01DX001 (ip), vehicle: saline
[11] = dose: 20.0 mg/kg/injection, schedule: Q01DX001 (ip), vehicle: saline
[12] = dose: 40.0 mg/kg/injection, schedule: Q01DX001 (ip), vehicle: saline
[13] = dose: 100.0 mg/kg/injection, schedule: Q04DX003 (ip), vehicle: saline
[14] = dose: 200.0 mg/kg/injection, schedule: Q04DX003 (ip), vehicle: saline
[15] = dose: 400.0 mg/kg/injection, schedule: Q04DX003 (ip), vehicle: saline
[16] = dose: 25.0 mg/kg/injection, schedule: Q04DX003 (ip), vehicle: Klucel (hydroxypropylcellulose) (HPC)
[17] = dose: 50.0 mg/kg/injection, schedule: Q04DX003 (ip), vehicle: Klucel (hydroxypropylcellulose) (HPC)
[18] = dose: 100.0 mg/kg/injection, schedule: Q04DX003 (ip), vehicle: Klucel (hydroxypropylcellulose) (HPC)
[19] = dose: 200.0 mg/kg/injection, schedule: Q04DX003 (ip), vehicle: Klucel (hydroxypropylcellulose) (HPC)
[20] = dose: 400.0 mg/kg/injection, schedule: Q04DX003 (ip), vehicle: Klucel (hydroxypropylcellulose) (HPC)
[21] = dose: 100.0 mg/kg/injection, schedule: Q01DX001 (ip), vehicle: saline

Measured: T/C

CCCCCCc1nc2nc(Cl)c(Cl)nc2[nH]1
inactive: dose: 25.0 mg/kg/injection, schedule: Q01DX009 (ip), vehicle: saline with Tween-80 93 % of control | dose: 25.0 mg/kg/injection, schedule: Q04DX003 (ip), vehicle: saline with Tween-80 105 % of control | dose: 50.0 mg/kg/injection, schedule: Q01DX009 (ip), vehicle: saline with Tween-80 96 % of control | dose: 50.0 mg/kg/injection, schedule: Q04DX003 (ip), vehicle: saline with Tween-80 98 % of control | [1] 106 % of control | [2] 95 % of control and 103 % of control | dose: 150.0 mg/kg/injection, schedule: Q01DX009 (ip), vehicle: saline with Tween-80 98 % of control

Nc1ccc(CCc2[nH]c(N)nc(=S)c2-c2ccc(Cl)cc2)cc1
inactive: [3] 110 % of control | [4] 86 % of control

CN(C)S(=O)(=O)c1ccc(NC(=O)C(Cl)(Cl)Cl)cc1
inactive: dose: 100.0 mg/kg/injection, schedule: Q01DX001 (ip), vehicle: other 104 % of control | [5] 94 % of control | dose: 100.0 mg/kg/injection, schedule: Q04DX003 (ip), vehicle: other 101 % of control | dose: 200.0 mg/kg/injection, schedule: Q01DX001 (ip), vehicle: other 96 % of control | dose: 200.0 mg/kg/injection, schedule: Q01DX009 (ip), vehicle: Klucel (hydroxypropylcellulose) (HPC) 92 % of control | dose: 200.0 mg/kg/injection, schedule: Q04DX003 (ip), vehicle: other 95 % of control | dose: 400.0 mg/kg/injection, schedule: Q01DX001 (ip), vehicle: other 98 % of control | dose: 400.0 mg/kg/injection, schedule: Q04DX003 (ip), vehicle: other 93 % of control

Cc1ccnc(NC(=O)Nc2ccc(C)cc2[N+](=O)[O-])c1
inactive: [6] 99 % of control | [7] 105 % of control | [8] 115 % of control

CC(=O)Nc1ncccc1C
inactive: [9] 94 % of control | [10] 96 % of control | [11] 101 % of control | [12] 100 % of control

CC(=O)OCCN1CCC(n2ccc(=O)[nH]c2=O)C1=O (centres undefined)
inactive: [13] 104 % of control | [14] 104 % of control | [15] 106 % of control

Clc1ccc(-c2cc(=[N+]3CCCCC3)ss2)cc1
inactive: [1] 100 % of control | [2] 104 % of control | [3] 94 % of control

OC(c1ccccc1)(c1ccccc1)C(F)(Cl)Cl
inactive: [13] 101 % of control | [14] 94 % of control | [15] 90 % of control

COC(=O)c1ccccc1NC(=O)Nc1ccccc1C(F)(F)F
inactive: [1] 89 % of control | dose: 200.0 mg/kg/injection, schedule: Q01DX009 (ip), vehicle: saline with Tween-80 89 % of control | dose: 400.0 mg/kg/injection, schedule: Q01DX009 (ip), vehicle: saline with Tween-80 86 % of control

c1ccc(CCc2nccc3ccccc23)cc1
inactive: dose: 75.0 mg/kg/injection, schedule: Q01DX001 (ip), vehicle: saline 96 % of control | dose: 150.0 mg/kg/injection, schedule: Q01DX001 (ip), vehicle: saline 97 % of control

Cc1cccc(NC(=O)Nc2cccc3ccccc23)c1C
inactive: dose: 25.0 mg/kg/injection, schedule: Q01DX009 (ip), vehicle: Klucel (hydroxypropylcellulose) (HPC) 92 % of control | [16] 94 % of control | dose: 50.0 mg/kg/injection, schedule: Q01DX009 (ip), vehicle: Klucel (hydroxypropylcellulose) (HPC) 96 % of control | [17] 89 % of control | [5] 92 % of control | [18] 91 % of control | [19] 93 % of control | [20] 91 % of control

CCOc1ccc(/C=N/NC(=O)c2ccccc2N)cc1OC
inactive: [6] 97 % of control | [7] 102 % of control | [8] 105 % of control

CN(C)C1c2cc(Br)ccc2-c2ccc([N+](=O)[O-])cc21 (centres undefined)
inactive: dose: 100.0 mg/kg/injection, schedule: Q01DX001 (ip), vehicle: carboxymethylcellulose (CMC) 94 % of control | dose: 200.0 mg/kg/injection, schedule: Q01DX001 (ip), vehicle: carboxymethylcellulose (CMC) 103 % of control | dose: 400.0 mg/kg/injection, schedule: Q01DX001 (ip), vehicle: carboxymethylcellulose (CMC) 100 % of control

CCOP1(=S)OCCO1
inactive: [18] 100 % of control | [19] 103 % of control

O=S1(=O)C=C(Cl)C2C3C=CC(C3)C21 (centres undefined)
inactive: dose: 0.62 mg/kg/injection, schedule: Q01DX009 (ip), vehicle: acetone 101 % of control | dose: 1.25 mg/kg/injection, schedule: Q01DX009 (ip), vehicle: acetone 104 % of control | dose: 2.5 mg/kg/injection, schedule: Q04DX003 (ip), vehicle: acetone 90 % of control | dose: 5.0 mg/kg/injection, schedule: Q04DX003 (ip), vehicle: acetone 92 % of control | dose: 10.0 mg/kg/injection, schedule: Q01DX001 (ip), vehicle: acetone 97 % of control

OC1COC(n2cnc3c(=S)nc[nH]c32)CC1O (centres undefined)
inactive: [9] 100 % of control | [10] 103 % of control | [11] 100 % of control | [12] 95 % of control | [21] 107 % of control | dose: 200.0 mg/kg/injection, schedule: Q01DX001 (ip), vehicle: saline 108 % of control | dose: 400.0 mg/kg/injection, schedule: Q01DX001 (ip), vehicle: saline 124 % of control

CCC1CC2c3cc(OC)c(OC)cc3CCN2CC1(O)Cc1ccncc1 (centres undefined)
inactive: dose: 100.0 mg/kg/injection, schedule: Q04DX003 (ip), vehicle: carboxymethylcellulose (CMC) 100 % of control | dose: 200.0 mg/kg/injection, schedule: Q04DX003 (ip), vehicle: carboxymethylcellulose (CMC) 104 % of control

O=C(O)Cn1c(=O)ccc2ccccc21
inactive: dose: 100.0 mg/kg/injection, schedule: Q04DX002 (ip), vehicle: saline with Tween-80 91 % of control | dose: 200.0 mg/kg/injection, schedule: Q04DX002 (ip), vehicle: saline with Tween-80 95 % of control | dose: 400.0 mg/kg/injection, schedule: Q04DX002 (ip), vehicle: saline with Tween-80 95 % of control

CC(=O)NN1C(=O)c2ccccc2C1=O
inactive: [17] 97 % of control | [18] 104 % of control | [19] 101 % of control

CCC(C)(C)C(=O)Nc1cccc(O)c1
inactive: [2] 92 % of control | [3] 90 % of control | [4] 95 % of control

c1ccc(CCN2CCOCC2)nc1
inactive: [13] 109 % of control | [14] 96 % of control

N=C(N)SCC(CSC(=N)N)c1cnnc2ccccc12 (centres undefined)
inactive: [21] 102 % of control

CC(=O)CC(=O)C(F)(F)F.CC(=O)CC(=O)C(F)(F)F.[O]=[V]
inactive: [16] 100 % of control | [17] 107 % of control | [18] 96 % of control

Nc1ncccc1O
inactive: [10] 105 % of control | [11] 95 % of control | [12] 94 % of control

FC1(F)SC2c3ccccc3CCC2C1(F)F (centres undefined)
inactive: [18] 96 % of control | [19] 95 % of control | [20] 102 % of control
